Results: ChEMBL document CHEMBL1201862, “PubChem BioAssay data set” (2004)
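Following 48 hours of exposure in 96-well plates, responses at five concentrations were used to interpolate endpoints linearly. Here, GI50 denotes the concentration required for 50% inhibition of growth.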 Active and inactive are the calls of the source. Rule as the data show it: active = GI50 up to about 1.1 µM and inactive = higher.

Experiments:
Experiment in all cases: NCI tumour cell line growth inhibition, 48 h
SK-MEL-5 = system: SK-MEL-5
HOP-92 = system: HOP-92
OVCAR-4 = system: OVCAR-4
KM-20L2 = system: KM-20L2
M19-MEL = system: M19-MEL
EKVX = system: EKVX
KM12 = system: KM12
SF-539 = system: SF-539
HT-29 = system: HT-29
NCI-H522 = system: NCI-H522
OVCAR-5 = system: OVCAR-5
M14 = system: M14
HOP-62 = system: HOP-62
DMS-114 = system: DMS-114
HL-60 = system: HL-60
HCT-15 = system: HCT-15
A498 = system: A498
SK-OV-3 = system: SK-OV-3
TK-10 = system: TK-10
SF-268 = system: SF-268
RPMI-8226 = system: RPMI-8226
CCRF-CEM = system: CCRF-CEM
DLD-1 = system: DLD-1
SK-MEL-28 = system: SK-MEL-28
RXF 631 = system: RXF 631
UACC-257 = system: UACC-257
NCI-H226 = system: NCI-H226
SW-620 = system: SW-620
OVCAR-3 = system: OVCAR-3
HCC 2998 = system: HCC 2998
IGROV-1 = system: IGROV-1
Malme-3M = system: Malme-3M
U-251 = system: U-251
LXFL 529 = system: LXFL 529
HCT-116 = system: HCT-116
UACC-62 = system: UACC-62
NCI-H460 = system: NCI-H460
RXF 393 = system: RXF 393
OVCAR-8 = system: OVCAR-8
SF-295 = system: SF-295
LOX IMVI = system: LOX IMVI
786-0 = system: 786-0
SK-MEL-2 = system: SK-MEL-2
COLO 205 = system: COLO 205
NCI-H23 = system: NCI-H23
A549 = system: A549
SNB-19 = system: SNB-19
ACHN = system: ACHN
SN12C = system: SN12C
HOP-18 = system: HOP-18
SNB-78 = system: SNB-78
UO-31 = system: UO-31
SNB-75 = system: SNB-75
DMS-273 = system: DMS-273
CAKI-1 = system: CAKI-1
XF498 = system: XF498
MOLT-4 = system: MOLT-4
K562 = system: K562
SR = system: SR

With `CCCCCCCCCCCCCc1nnn[nH]1` the GI50 (SK-MEL-5) was 17.7 µM (inactive), the GI50 (HOP-92) was 15.6 µM (inactive) and the GI50 (OVCAR-4) was 18.3 µM (inactive). The GI50 (KM-20L2) was 20.2 µM (inactive), the GI50 (M19-MEL) was 19.7 µM (inactive) and the GI50 (EKVX) was 23.4 µM (inactive). For the same molecule, the GI50 (KM12) was 18.3 µM (inactive), the GI50 (SF-539) was 18.2 µM (inactive) and the GI50 (HT-29) was 18 µM (inactive). For the same molecule, the GI50 (NCI-H522) was 21.8 µM (inactive), the GI50 (OVCAR-5) was 18.5 µM (inactive) and the GI50 (M14) was 17.5 µM (inactive). The GI50 (HOP-62) was 18.2 µM (inactive), the GI50 (DMS-114) was 18.5 µM (inactive) and the GI50 (HL-60) was 18.1 µM (inactive). The GI50 (HCT-15) was 18.3 µM, the GI50 (A498) was 17 µM (inactive) and the GI50 (SK-OV-3) was 24.7 µM (inactive). For the same molecule, the GI50 (TK-10) was 20.6 µM (inactive), the GI50 (SF-268) was 19.6 µM (inactive) and the GI50 (RPMI-8226) was 22.4 µM (inactive). The GI50 (CCRF-CEM) was 18.8 µM (inactive), the GI50 (DLD-1) was 17.1 µM (inactive) and the GI50 (SK-MEL-28) was 17.8 µM (inactive). The GI50 (RXF 631) was 15.4 µM (inactive), the GI50 (UACC-257) was 18.7 µM (inactive) and the GI50 (NCI-H226) was 22.2 µM (inactive). The GI50 (SW-620) was 20 µM (inactive), the GI50 (OVCAR-3) was 18.3 µM (inactive) and the GI50 (HCC 2998) was 18.6 µM (inactive). For the same molecule, the GI50 (IGROV-1) was 21.2 µM (inactive), the GI50 (Malme-3M) was 18.1 µM (inactive) and the GI50 (U-251) was 18.2 µM (inactive). For the same molecule, the GI50 (LXFL 529) was 17.3 µM (inactive), the GI50 (HCT-116) was 17.9 µM (inactive) and the GI50 (UACC-62) was 18 µM (inactive). The GI50 (NCI-H460) was 20.6 µM (inactive), the GI50 (RXF 393) was 27.5 µM (inactive) and the GI50 (OVCAR-8) was 29.9 µM (inactive). For the same molecule, the GI50 (SF-295) was 19.2 µM (inactive), the GI50 (LOX IMVI) was 18.4 µM (inactive) and the GI50 (786-0) was 17.3 µM (inactive). The GI50 (SK-MEL-2) was 18.2 µM (inactive), the GI50 (COLO 205) was 19.4 µM (inactive) and the GI50 (NCI-H23) was 24.4 µM (inactive). The GI50 (A549) was 20 µM (inactive), the GI50 (SNB-19) was 18.7 µM (inactive) and the GI50 (ACHN) was 19.1 µM (inactive). For the same molecule, the GI50 (SN12C) was 18.8 µM (inactive), the GI50 (HOP-18) was 15 µM (inactive) and the GI50 (SNB-78) was 21.4 µM (inactive). The GI50 (UO-31) was 16 µM (inactive) and the GI50 (SNB-75) was 18.3 µM (inactive).

In the case of `Cc1ccc(S(=O)(=O)c2ccc(N)cc2)cc1`, the GI50 (SK-MEL-5) is reported as > 100 µM (inactive), the GI50 (DMS-273) is reported as > 100 µM (inactive) and the GI50 (OVCAR-4) is reported as > 100 µM (inactive). The GI50 (KM-20L2) was > 100 µM (inactive), the GI50 (M19-MEL) was > 100 µM (inactive) and the GI50 (EKVX) was > 100 µM (inactive). The GI50 (KM12) was 47.6 µM (inactive), the GI50 (SF-539) was > 100 µM (inactive) and the GI50 (HT-29) was > 100 µM (inactive). The GI50 (OVCAR-5) was > 100 µM (inactive), the GI50 (M14) was > 100 µM (inactive) and the GI50 (HOP-62) was > 100 µM (inactive). The GI50 (HL-60) was > 100 µM (inactive), the GI50 (HCT-15) was > 100 µM and the GI50 (A498) was > 100 µM (inactive). The GI50 (SK-OV-3) was > 100 µM (inactive), the GI50 (TK-10) was > 100 µM (inactive) and the GI50 (RPMI-8226) was > 100 µM (inactive). The GI50 (CCRF-CEM) was > 100 µM (inactive), the GI50 (DLD-1) was > 100 µM (inactive) and the GI50 (SK-MEL-28) was > 100 µM (inactive). The GI50 (RXF 631) was > 100 µM (inactive), the GI50 (UACC-257) was > 100 µM (inactive) and the GI50 (NCI-H226) was > 10 µM (inactive). For the same molecule, the GI50 (SW-620) was > 100 µM (inactive), the GI50 (OVCAR-3) was > 100 µM (inactive) and the GI50 (HCC 2998) was > 100 µM (inactive). The GI50 (CAKI-1) was 97.9 µM (inactive), the GI50 (IGROV-1) was > 100 µM (inactive) and the GI50 (Malme-3M) was > 100 µM (inactive). The GI50 (U-251) was > 100 µM (inactive), the GI50 (LXFL 529) was > 100 µM (inactive) and the GI50 (HCT-116) was > 100 µM (inactive). The GI50 (XF498) was > 100 µM (inactive), the GI50 (UACC-62) was > 100 µM (inactive) and the GI50 (NCI-H460) was > 100 µM (inactive). For the same molecule, the GI50 (MOLT-4) was > 100 µM (inactive), the GI50 (RXF 393) was > 100 µM (inactive) and the GI50 (OVCAR-8) was > 100 µM (inactive). For the same molecule, the GI50 (K562) was > 100 µM (inactive), the GI50 (SF-295) was > 100 µM (inactive) and the GI50 (786-0) was > 100 µM (inactive). The GI50 (SK-MEL-2) was > 100 µM (inactive), the GI50 (NCI-H23) was > 100 µM (inactive) and the GI50 (A549) was > 100 µM (inactive). The GI50 (ACHN) was > 100 µM (inactive), the GI50 (SNB-78) was > 100 µM (inactive) and the GI50 (UO-31) was > 100 µM (inactive). The GI50 (SNB-75) was > 100 µM (inactive).

With `CCCCNC1=C2C(=O)NN=C2CO1` the GI50 (SK-MEL-5) was > 100 µM (inactive), the GI50 (DMS-273) was > 100 µM (inactive) and the GI50 (HOP-92) was > 100 µM (inactive). The GI50 (OVCAR-4) was > 100 µM (inactive), the GI50 (KM-20L2) was > 100 µM (inactive) and the GI50 (M19-MEL) was > 100 µM (inactive). For the same molecule, the GI50 (EKVX) was > 100 µM (inactive), the GI50 (KM12) was > 100 µM (inactive) and the GI50 (SF-539) was > 100 µM (inactive). The GI50 (HT-29) was > 100 µM (inactive), the GI50 (NCI-H522) was > 100 µM (inactive) and the GI50 (OVCAR-5) was > 100 µM (inactive). The GI50 (M14) was > 100 µM (inactive), the GI50 (HOP-62) was > 100 µM (inactive) and the GI50 (DMS-114) was > 100 µM (inactive). The GI50 (HL-60) was > 100 µM (inactive), the GI50 (HCT-15) was > 100 µM and the GI50 (A498) was > 100 µM (inactive). For the same molecule, the GI50 (SK-OV-3) was > 100 µM (inactive), the GI50 (TK-10) was > 100 µM (inactive) and the GI50 (SF-268) was > 100 µM (inactive). The GI50 (RPMI-8226) was > 100 µM (inactive), the GI50 (CCRF-CEM) was > 100 µM (inactive) and the GI50 (DLD-1) was > 100 µM (inactive). The GI50 (SK-MEL-28) was > 100 µM (inactive), the GI50 (RXF 631) was > 100 µM (inactive) and the GI50 (UACC-257) was > 100 µM (inactive). For the same molecule, the GI50 (NCI-H226) was > 100 µM (inactive), the GI50 (SW-620) was > 100 µM (inactive) and the GI50 (HCC 2998) was > 100 µM (inactive). The GI50 (SR) was > 100 µM (inactive), the GI50 (CAKI-1) was > 100 µM (inactive) and the GI50 (IGROV-1) was > 100 µM (inactive). For the same molecule, the GI50 (U-251) was > 100 µM (inactive), the GI50 (LXFL 529) was 39.8 µM (inactive) and the GI50 (HCT-116) was > 100 µM (inactive). The GI50 (XF498) was > 100 µM (inactive), the GI50 (UACC-62) was > 100 µM (inactive) and the GI50 (NCI-H460) was > 100 µM (inactive). For the same molecule, the GI50 (MOLT-4) was > 100 µM (inactive), the GI50 (RXF 393) was > 100 µM (inactive) and the GI50 (OVCAR-8) was > 100 µM (inactive). The GI50 (K562) was > 100 µM (inactive), the GI50 (SF-295) was > 100 µM (inactive) and the GI50 (LOX IMVI) was > 100 µM (inactive). The GI50 (SK-MEL-2) was > 100 µM (inactive), the GI50 (COLO 205) was > 100 µM (inactive) and the GI50 (NCI-H23) was > 100 µM (inactive). The GI50 (A549) was > 100 µM (inactive), the GI50 (SNB-19) was > 100 µM (inactive) and the GI50 (ACHN) was > 100 µM (inactive). The GI50 (SN12C) was > 100 µM (inactive), the GI50 (SNB-78) was > 100 µM (inactive) and the GI50 (UO-31) was > 100 µM (inactive). For the same molecule, the GI50 (SNB-75) was > 100 µM (inactive).
